Data taken from patent publication US11274090B2, “P300/CBP HAT inhibitors” (Constellation Pharmaceuticals, Inc., priority 2018, dated 2022).

What was measured:
full length p300 = full length p300 (Homo sapiens (Human), UniProt Q09472); experiment: full length p300 SPA assay; format: biochemical; settings: average of at least 2 replicate titrations, read-out: FL P300 IC50
Experimental: Reactions were initiated with 12.5 μL 2 μM biotinylated H3(1-21) peptide (New England Peptide) and run for 1 hr at RT, then quenched with 20 μL stop solution (200 mM Tris pH 8.0, 200 mM EDTA, 2M NaCl, 160 μM anacardic acid). 35 μL of the reaction volume was transferred to a 384-well streptavidin FlashPlate (PerkinElmer) using a Bravo liquid handler (Velocity 11) and incubated for 1.5 hr at RT. Plates were aspirated, washed with 95 μL wash buffer (15 mM Tris pH 8.5, 0.069 μM Brij-35), aspirated, sealed, and scintillation counts read on a Topcount (PerkinElmer). Data were analyzed in Genedata to determine inhibitor IC50 values.
The full length p300 SPA assay was run following the same protocol as p300 HAT SPA assay, but used 6 nM purified full length p300 (purchased from Active Motif) in place of the purified p300-HAT domain.

[1] = biological target: p300 HAT domain (residues 1287-1666) (Homo sapiens (Human), UniProt Q09472); experiment: p300 HAT SPA assay (scintillation proximity assay, acetylation of biotinylated H3(1-21) peptide); format: biochemical; settings: average of at least 2 replicate titrations
Chain of p300 HAT domain (residues 1287-1666) (Q09472 1287-1666): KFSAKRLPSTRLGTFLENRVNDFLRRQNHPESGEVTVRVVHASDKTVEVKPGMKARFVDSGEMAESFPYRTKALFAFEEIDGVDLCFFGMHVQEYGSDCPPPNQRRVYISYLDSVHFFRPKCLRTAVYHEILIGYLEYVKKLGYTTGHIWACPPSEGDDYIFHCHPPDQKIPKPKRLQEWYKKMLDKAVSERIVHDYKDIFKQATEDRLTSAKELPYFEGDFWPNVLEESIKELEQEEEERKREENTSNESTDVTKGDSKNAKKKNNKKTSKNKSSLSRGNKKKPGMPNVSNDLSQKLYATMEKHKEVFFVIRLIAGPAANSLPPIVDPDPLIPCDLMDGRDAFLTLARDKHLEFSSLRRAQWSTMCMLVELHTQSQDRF
In short: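 Purified p300 HAT domain reaction transferred to streptavidin plates to capture biotinylated H3(1-21) peptide, incubated 1.5 hr at RT, and read by scintillation proximity. IC50 values derived from concentration-response data.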

Chain of full length p300 (Q09472 whole entry): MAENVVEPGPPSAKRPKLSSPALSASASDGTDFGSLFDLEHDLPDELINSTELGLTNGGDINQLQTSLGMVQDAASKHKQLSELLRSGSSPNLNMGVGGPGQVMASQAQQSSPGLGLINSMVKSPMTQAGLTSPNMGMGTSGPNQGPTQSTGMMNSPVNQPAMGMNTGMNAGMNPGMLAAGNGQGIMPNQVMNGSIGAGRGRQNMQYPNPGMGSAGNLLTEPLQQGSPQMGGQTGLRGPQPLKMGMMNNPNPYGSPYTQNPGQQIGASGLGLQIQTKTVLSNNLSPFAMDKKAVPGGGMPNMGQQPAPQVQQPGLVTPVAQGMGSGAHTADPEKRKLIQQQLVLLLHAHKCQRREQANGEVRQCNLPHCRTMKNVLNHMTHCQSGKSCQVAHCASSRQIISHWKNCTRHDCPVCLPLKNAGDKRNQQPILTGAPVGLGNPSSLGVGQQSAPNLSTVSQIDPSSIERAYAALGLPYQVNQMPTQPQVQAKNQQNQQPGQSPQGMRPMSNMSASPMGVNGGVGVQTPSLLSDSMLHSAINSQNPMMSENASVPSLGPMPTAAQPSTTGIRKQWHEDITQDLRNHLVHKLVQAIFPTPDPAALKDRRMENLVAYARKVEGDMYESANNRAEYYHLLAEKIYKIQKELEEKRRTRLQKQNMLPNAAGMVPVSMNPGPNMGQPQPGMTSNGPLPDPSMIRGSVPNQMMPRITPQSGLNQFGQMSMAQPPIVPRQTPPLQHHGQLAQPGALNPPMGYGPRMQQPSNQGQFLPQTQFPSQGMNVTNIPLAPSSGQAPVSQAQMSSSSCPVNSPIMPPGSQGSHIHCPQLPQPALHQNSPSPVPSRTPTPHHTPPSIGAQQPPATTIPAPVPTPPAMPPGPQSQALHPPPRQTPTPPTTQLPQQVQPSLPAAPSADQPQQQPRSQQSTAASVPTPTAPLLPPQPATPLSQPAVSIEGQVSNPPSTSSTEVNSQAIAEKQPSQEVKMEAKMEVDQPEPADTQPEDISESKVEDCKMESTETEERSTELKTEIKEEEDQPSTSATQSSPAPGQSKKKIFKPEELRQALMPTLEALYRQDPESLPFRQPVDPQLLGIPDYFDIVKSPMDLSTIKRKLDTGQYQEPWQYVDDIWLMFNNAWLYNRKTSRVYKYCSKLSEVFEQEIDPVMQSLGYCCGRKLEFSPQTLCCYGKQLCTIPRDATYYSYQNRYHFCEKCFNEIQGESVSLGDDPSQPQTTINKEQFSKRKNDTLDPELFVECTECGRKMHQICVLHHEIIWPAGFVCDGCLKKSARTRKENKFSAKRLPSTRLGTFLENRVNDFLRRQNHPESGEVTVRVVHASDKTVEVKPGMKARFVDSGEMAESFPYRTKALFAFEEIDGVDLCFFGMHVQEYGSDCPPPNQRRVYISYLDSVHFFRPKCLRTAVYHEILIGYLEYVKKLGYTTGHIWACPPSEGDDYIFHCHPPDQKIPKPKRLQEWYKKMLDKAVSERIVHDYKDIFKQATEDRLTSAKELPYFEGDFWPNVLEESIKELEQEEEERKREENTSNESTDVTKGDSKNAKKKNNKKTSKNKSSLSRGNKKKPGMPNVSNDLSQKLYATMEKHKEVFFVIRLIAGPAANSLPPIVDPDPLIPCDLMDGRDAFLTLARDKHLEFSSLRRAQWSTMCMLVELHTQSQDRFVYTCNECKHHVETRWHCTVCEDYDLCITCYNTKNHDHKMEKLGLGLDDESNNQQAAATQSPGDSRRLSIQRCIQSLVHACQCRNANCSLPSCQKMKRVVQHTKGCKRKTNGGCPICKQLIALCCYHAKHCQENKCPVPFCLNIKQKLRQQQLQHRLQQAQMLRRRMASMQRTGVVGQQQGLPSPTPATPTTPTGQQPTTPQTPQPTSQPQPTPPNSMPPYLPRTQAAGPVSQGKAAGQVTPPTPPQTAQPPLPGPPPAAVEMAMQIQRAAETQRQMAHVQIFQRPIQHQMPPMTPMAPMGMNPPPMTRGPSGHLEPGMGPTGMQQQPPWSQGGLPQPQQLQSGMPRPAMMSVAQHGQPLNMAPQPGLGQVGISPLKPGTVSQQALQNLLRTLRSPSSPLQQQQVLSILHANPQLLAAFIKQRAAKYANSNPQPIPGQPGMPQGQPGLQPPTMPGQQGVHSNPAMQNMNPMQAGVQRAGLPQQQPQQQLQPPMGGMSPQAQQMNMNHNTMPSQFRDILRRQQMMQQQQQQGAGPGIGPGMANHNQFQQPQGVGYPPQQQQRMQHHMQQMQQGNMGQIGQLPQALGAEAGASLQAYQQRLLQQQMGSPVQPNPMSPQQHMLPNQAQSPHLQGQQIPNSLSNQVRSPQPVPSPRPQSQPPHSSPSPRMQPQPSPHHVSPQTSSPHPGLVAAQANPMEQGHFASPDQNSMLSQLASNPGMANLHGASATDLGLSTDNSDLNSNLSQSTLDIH

Compound	IC50 (full length p300) [nM]	IC50 [1] [nM]
CN1CCN(c2ccc(NC(=O)C(NCCc3ccc(C#N)cc3)c3ccccc3)nc2)CC1=O (single isomer, unassigned) [44 Isomer 2]	2.66	41.6
CC(=O)N1CCN(c2ccc(NC(=O)C(NCCc3ccc(C#N)cc3)c3ccccc3)nc2)CC1 (single isomer, unassigned) [72 Isomer 1]	4.13	85.2
N#Cc1ccc(CCNC(C(=O)Nc2ccc(-c3cn[nH]c3)cn2)c2ccccc2)cc1 (single isomer, unassigned) [7 Isomer 2]	13.4	376
Cc1ccc(-c2ccc(NC(=O)C(NCC(C)c3ccc(C#N)cc3)c3ccccc3)nc2)nn1 (single isomer, unassigned) [15 Isomer 4]	1.5	41.3
Cc1ccn(-c2ccc(NC(=O)C(NCC(C)c3ccc(C#N)cc3)c3ccccc3)nc2)n1 (single isomer, unassigned) [61 Isomer 4]	68.5	1340
COc1cc(NC(=O)C(NCCc2ccc(C#N)cc2)c2ccccc2)ccc1-c1cnn(C)c1 (single isomer, unassigned) [25 Isomer 1]	40.1	1590
Cc1ccn(-c2ccc(NC(=O)C(NCC(C)c3ccc(C#N)cc3)c3ccccc3)nc2)n1 (single isomer, unassigned) [61 Isomer 1]	120	2410
N#Cc1ccc(CCNC(C(=O)Nc2ccc(-c3ccccc3)cn2)c2ccccc2)cc1 (single isomer, unassigned) [34 Isomer 1]	7250	> 5000
COC1CN(c2ccc(NC(=O)C(NCCc3ccc(C#N)cc3)c3ccccc3)nc2)C1 (single isomer, unassigned) [31 Isomer 1]	2.57	71.4
COC1CN(c2ccc(NC(=O)C(NCCc3ccc(C#N)cc3)c3ccccc3)nc2)C1 (single isomer, unassigned) [31 Isomer 2]	167	> 5000
Cc1cnn(-c2ccc(NC(=O)C(NCC(C)c3ccc(C#N)cc3)c3ccccc3)nc2)c1 (single isomer, unassigned) [62 Isomer 2]	16.7	565
Cn1ccc(-c2ccc(NC(=O)C(NCCc3ccc(C#N)cc3)c3ccccc3)nc2)n1 (single isomer, unassigned) [14 Isomer 1]	176	> 5000
CN1CCN(c2ccc(NC(=O)C(NCCc3ccc(Cl)cc3)c3ccccc3)nc2)CC1=O (single isomer, unassigned) [45 Isomer 1]	1.46	26
CN1CCN(c2ccc(NC(=O)C(NCCc3ccc(Cl)cc3)c3ccccc3)nc2)CC1=O (single isomer, unassigned) [45 Isomer 2]	43.1	1020
Cc1cn(-c2ccc(NC(=O)C(NCCc3ccc(C#N)cc3)c3ccccc3)nc2)cn1 (single isomer, unassigned) [28 Isomer 2]	24	2830
CC(=O)N1CCN(c2ccc(NC(=O)C(NCCc3ccc(C#N)cc3)c3ccccc3)nc2)CC1 (single isomer, unassigned) [72 Isomer 2]	46.9	> 2000
Cn1cc(-c2cnc(NC(=O)C(NCCc3ccc(C#N)cc3)c3ccccc3)cc2F)cn1 (single isomer, unassigned) [74 Isomer 2]	5	146
Cn1cnc(-c2ccc(NC(=O)C(NCCc3ccc(C#N)cc3)c3ccccc3)nc2)c1 (single isomer, unassigned) [13 Isomer 1]	273	> 5000
CS(=O)(=O)N1CCN(c2ccc(NC(=O)C(NCCc3ccc(C#N)cc3)c3ccccc3)nc2)CC1 (single isomer, unassigned) [68 Isomer 2]	1.9	70
Cc1ccn(-c2ccc(NC(=O)C(NCC(C)c3ccc(C#N)cc3)c3ccccc3)nc2)n1 (single isomer, unassigned) [61 Isomer 2]	123	> 5000

Further lines, results first:

IC50 (full length p300) [nM]	IC50 [1] [nM]	Compound
1	6.59	CC(CNC(C(=O)Nc1ccc(-c2cnn(C)n2)cn1)c1ccccc1)c1ccc(C#N)cc1 (single isomer, unassigned) [98 Isomer 2]
1.78	11	CC1CN(c2ccc(NC(=O)C(NC[C@@H](C)c3ccc(C#N)cc3)c3ccccc3)nc2)CC(=O)N1C (single isomer, unassigned) [124 Isomer 1]
40.6	966	Cn1cc(-c2ccc3c(c2)CCN3C(=O)C(NCCc2ccc(C#N)cc2)c2ccccc2)cn1 (single isomer, unassigned) [152 Isomer 1]
3.3	26.1	C[C@H](CNC(C(=O)Nc1ccc(C2CC(=O)N(C)C2)cn1)c1ccccc1)c1ccc(C#N)cc1 (single isomer, unassigned) [109 Isomer 4]
387	> 2000	Cn1cc(-c2cnc(NC(=O)C(NCCc3ccc(C#N)cc3)c3ccccc3)c(F)c2)cn1 (single isomer, unassigned) [75 Isomer 2]
13500	> 2000	Cn1cc(-c2cccc(NC(=O)C(NCCc3ccc(C#N)cc3)c3ccccc3)n2)cn1 (single isomer, unassigned) [123 Isomer 2]
< 3.24	26	C[C@H](CNC(C(=O)Nc1ccc(-c2cnn(C)c(=O)c2)cn1)c1ccccc1)c1ccc(C#N)cc1 (single isomer, unassigned) [139 Isomer 1]
< 2	31.8	Cn1cc(-c2ccc3c(c2)CCN3C(=O)C(NCCc2ccc(C#N)cc2)c2ccccc2)cn1 (single isomer, unassigned) [152 Isomer 2]
1.2	32.7	Cc1cc(NC(=O)C(NC[C@@H](C)c2ccc(C#N)cc2)c2ccccc2)ncc1-c1cnn(C)c1 (single isomer, unassigned) [115 Isomer 2]
0.74	10.2	(R, S)- and (S, S)-2-((2- (4- cyanophenyl)propyl)ami- no)-N-(5-(1,3-dimethyl- 1H-pyrazol-4-yl)pyridin- 2-yl)-2-phenylacetamide [113 Isomer 2]
< 3.24	19	Cn1cc(-c2ccc(NC(=O)C(NCC(c3ccc(C#N)cc3)C(F)(F)F)c3ccccc3)nc2)cn1 (single isomer, unassigned) [149 Isomer 2]
0.75	6.4	CC(CNC(C(=O)Nc1ccc(-c2cnn(C)c2)cn1)c1ccccc1)c1ccc(C#N)c(F)c1 (single isomer, unassigned) [91 Isomer 2]
